Consider 16 compounds from EP1159261B1, “ANTIZYME MODULATORS AND THEIR USE” (ORIDIGM CORPORATION, priority 1999, dated 2000).

In assay [1] the test system is human antizyme sequence. Put plainly: in vitro antizyme dual luciferase frameshifting assay (in vitro translation in reticulocyte lysate). The format is biochemical. The following applies: for In vitro antizyme induction / antizyme induction: result in words; for antizyme induction: sentence does not say in vitro or in vivo, context is the in vitro assay. An excerpt: As one skilled in the art would appreciate, there are a multitude of means to test the agmatine and polyamine analogs of the invention for the ability to induce a frameshift. […] This assay allows one to measure the efficiency of translational frameshifting on the human antizyme sequence. Briefly, two variations of the human antizyme sequence were cloned between the renilla (5') and firefly (3') luciferase reporter genes in pRL-SV40 (Promega) plasmids. One plasmid contained the wild type antizyme sequence which requires a +1 frameshift for complete translation, the other plasmid contained modified, in-frame antizyme (control) sequences. These plasmids are utilized to transiently or stably transfect human cell lines with either the wild type or in-frame antizyme sequence-containing plasmids. Renilla and firefly luciferase activity in each assay (with cells containing one of the two plasmids) is measured to account for polymerase fall-off or translational efficiency in the presence or absence of the agmatine and polyamine analogs of the invention. That ratio is used to normalize the firefly luciferase activity seen in the wild type sequence, compared to the in-frame control sequence.
In vitro assays of the effect of agmatine and polyamine analogs on antizyme frameshifting were performed as follows. Linearized plasmids containing the wild type and in-frame antizyme sequence were transcribed in vitro, followed by in vitro translation in reticulocyte lysate, with and without agmatine and polyamine analogs. Luminescence was measured using the Dual-Luciferase™ reporter assay (Promega).
This assay allows one to measure the efficiency of translational frameshifting on the human antizyme sequence. Briefly, two variations of the human antizyme sequence were cloned between the renilla (5') and firefly (3') luciferase reporter genes in pRL-SV40 (Promega) plasmids. One plasmid contained the wild type antizyme sequence which requires a +1 frameshift for complete translation, the other plasmid contained modified, in-frame antizyme (control) sequences. These plasmids are utilized to transiently or stably transfect human cell lines with either the wild type or in-frame antizyme sequence-containing plasmids. Renilla and firefly luciferase activity in each assay (with cells containing one of the two plasmids) is measured to account for polymerase fall-off or translational efficiency in the presence or absence of the analogs of the invention. That ratio is used to normalize the firefly luciferase activity seen in the wild type sequence, compared to the in-frame control sequence.
In vitro assays of the effect of agmatine analogs on antizyme frameshifting were performed as follows. Linearized plasmids containing the wild type and in-frame antizyme sequence were transcribed in vitro, followed by in vitro translation in reticulocyte lysate, with and without agmatine analogs . Luminescence was measured using the Dual-Luciferase™ reporter assay (Promega).

Assay [2] deals with human antizyme sequence. Put plainly: in vivo (cellular) antizyme dual luciferase frameshifting assay in transfected cell lines. The format is cell-based. The following applies: for In vivo (cellular) antizyme induction: result in words. Here is the method:
As one skilled in the art would appreciate, there are a multitude of means to test the agmatine and polyamine analogs of the invention for the ability to induce a frameshift. For example, Satriano et al. (J. Biol. Chem., 273:15313-15316 (1998)) and the references cited therein utilized an in vitro reticulocyte system. The agmatine and polyamine analogs of the invention were tested in vitro (such as by test tube) and in vivo (such as by cell culture) using the antizyme dual luciferase frameshifting assay as described by Grentzmann, G., et al in RNA 4:479-486, 1998. This assay allows one to measure the efficiency of translational frameshifting on the human antizyme sequence. Briefly, two variations of the human antizyme sequence were cloned between the renilla (5') and firefly (3') luciferase reporter genes in pRL-SV40 (Promega) plasmids. One plasmid contained the wild type antizyme sequence which requires a +1 frameshift for complete translation, the other plasmid contained modified, in-frame antizyme (control) sequences. These plasmids are utilized to transiently or stably transfect human cell lines with either the wild type or in-frame antizyme sequence-containing plasmids. Renilla and firefly luciferase activity in each assay (with cells containing one of the two plasmids) is measured to account for polymerase fall-off or translational efficiency in the presence or absence of the agmatine and polyamine analogs of the invention. That ratio is used to normalize the firefly luciferase activity seen in the wild type sequence, compared to the in-frame control sequence. […] Agmatine and polyamine analogs of the invention were tested in vitro (such as by test tube) and in vivo (such as with cell lines) using the antizyme dual luciferase frameshifting assay as described by Grentzmann, G., et al in RNA 4:479-486, 1998. This assay allows one to measure the efficiency of translational frameshifting on the human antizyme sequence. Briefly, two variations of the human antizyme sequence were cloned between the renilla (5') and firefly (3') luciferase reporter genes in pRL-SV40 (Promega) plasmids. One plasmid contained the wild type antizyme sequence which requires a +1 frameshift for complete translation, the other plasmid contained modified, in-frame antizyme (control) sequences. These plasmids are utilized to transiently or stably transfect human cell lines with either the wild type or in-frame antizyme sequence-containing plasmids. Renilla and firefly luciferase activity in each assay (with cells containing one of the two plasmids) is measured to account for polymerase fall-off or translational efficiency in the presence or absence of the analogs of the invention. That ratio is used to normalize the firefly luciferase activity seen in the wild type sequence, compared to the in-frame control sequence.

Assay [3] deals with breast carcinoma cell line, MDA-MB-231. Put plainly: cell growth inhibition, seven days, MTS/PMS dye assay. The format is cell-based. The following applies: for IC50: Homo sapiens. Here is the method:
The IC50 values in the above Table as well as Tables 1B and 1C below were determined with the breast carcinoma cell line, MDA-MB-231.
Cells were plated in 96-well plates such that they would be in log growth for the duration of the assay. The day after plating, drugs were added to the cells and they were grown for seven days. Cell growth was measured by MTS/PMS dye assay (Promega). The assay was done in the presence of 1 mM aminoguanidine to inhibit amine oxidases from the serum in the culture media and 1 µM spermidine to insure that any growth inhibition was not the result of depletion of external polyamines from the media. The assay was also performed over seven days because this allows for the greatest dynamic range in cell growth due to the mechanism of concomitant inhibition of polyamine biosynthesis and transport. Cells need to divide several times before the intracellular level of polyamines begin to decrease to growth inhibitory levels.
(§1) For example, compounds ORI 1041 and ORI 1093 were evaluated as polyamine transport inhibitors and for growth inhibition in a cell based (MDA-MB-231 breast cancer cell line) assay with and without DFMO.

The test system of assay [4] is polyamine transporter. The assay can be described thus: polyamine transport assay (^3H-spermidine uptake into cells). In kind it is cell-based. The following applies: result in words. Here is the method:
Cells in log growth are pre-incubated with an agmatine analog followed by addition of ^3H-spermidine. […] The cells were then washed three times with cold PBS, lysed with 0.1% SDS, and the amount of polyamine incorporation into the cells was determined by scintillation counting of the cell lysates. To determine a Ki, four substrate concentrations and five inhibitor concentrations and a control were tested. The Ki was determined by a non-linear fit to the Michaelis-Menten equation.
as §1

Setting [5] is: MDA-MB-231, with DFMO, unit inferred, read-out: Cell Growth IC50+DFMO.
Setting [6] is: MDA-MB-231, without DFMO, unit printed in b172 only, read-out: Cell Growth IC50.

“Also recorded” adds a separate entry of the source. Like-named read-outs stand apart in the source and are kept apart here.

Regarding `NCCCCCN` [cadaverine, reference compound], the “In vitro antizyme induction” value in assay [1] is listed as “no induction was observed; also recorded: no in vitro activity”. Moreover, in assay [2], the “In vivo (cellular) antizyme induction” value is on record as “only slightly less active than putrescine; also recorded: significant in vivo activity”.

In the case of α-dimethylspermine [Analog 1383], the “In vivo (cellular) antizyme induction” value in assay [2] is “positive; also recorded: to the same extent as spermine”.

With `NCCCNCc1ccc(CNCCCN)cc1` [Analog 1283], in assay [2], the “In vivo (cellular) antizyme induction” value was “positive; also recorded: increase in induction activity”.

For `CC(N)CCC(C)N` (stereo not shown) [Analog 1351, 2,5-diaminohexane], the “In vitro antizyme induction” value in assay [1] was “induces antizyme”.

Take `NCCCCON` [Analog 1292, AOBA]: the antizyme induction result in assay [1] is “no induction activity is observed”.

On to `NCCCC[C@H](N)C(=O)O` [L-lysine, reference compound], for which, in assay [1], the antizyme induction entry was “does not induce antizyme activation”.

For L-Lys-spermine conjugate [Analog 1202], the “In vitro antizyme induction” value in assay [1] is “diminished ability to induce antizyme”. Moreover, in assay [2], the “In vivo (cellular) antizyme induction” value is on record as “positive; also recorded: diminished ability to induce antizyme”.

On to `CC(=O)NCCCNCCCCNCCCN` [Analog 1110, N^1-acetylspermine], for which the “In vivo (cellular)” value in assay [2] (antizyme induction @ 10 mM) was 30% @ 10 mM. In addition, the “In vivo (cellular) antizyme induction” value in assay [2] was “demonstrated antizyme inducing activity”; in assay [2] (listed as ORI 1110), “diminished ability to induce the expression of active antizyme in comparison with spermidine”.

For orientation: IC50 means the midpoint of a concentration-inhibition curve. Turning to `O=S(=O)(NCCCNCCCCNCCCNS(=O)(=O)c1ccc2oc3ccccc3c2c1)c1ccc2oc3ccccc3c2c1` [Analog 1293], the IC50 in assay [3] (setting [5]) and in assay [3] (setting [6]) was 2 µM throughout. In addition, in assay [3] (MDA-MB-231), the “R value (R= IC50/ IC50+DFMO)” value is given as around 1. Besides, in assay [4], the polyamine transport inhibition result is given as “fairly poor transport inhibitor”.

Turning to `NCCCCNCCCCNCCCCN` [Analog 1190], in assay [2], the “In vivo (cellular) antizyme induction” value is “negative; also recorded: no ability to induce antizyme”.

On to `NCCCNCCCCNCCCNS(=O)(=O)c1ccc2oc3ccccc3c2c1` [Analog 1041], for which the In vitro in assay [1] (antizyme induction at 0.06 mM) is 15% at 0.06 mM. Also, the “In vitro antizyme induction” value in assay [1] was “demonstrated in vitro induction activity; also recorded: dramatic increase in in vitro induction activity in comparison with spermidine”. In addition, the IC50 came to 53 µM in assay [3] (setting [5]); 50 µM in assay [3] (setting [6]); 12 µM in assay [3] (MDA-MB-231, Tables 1A and 1B, unit inferred, read-out: IC50). Moreover, in assay [3] (MDA-MB-231), the “R value (R= IC50/ IC50+DFMO)” value is recorded as around 1. Also, the polyamine transport inhibition result in assay [4] is “fairly good transport inhibitor”.

For `NCCCCNCCCN` [Spermidine, reference compound], in assay [1] (antizyme induction @ 1 mM), the In vitro came to 22% @ 1 mM. In assay [2] (antizyme induction @ 16 mM), the “In vivo (cellular)” value amounted to 35% @ 16 mM.

Take `NCCCNCCCCNCCCN` [spermine, reference compound]: the “In vitro antizyme induction” value in assay [1] was “induced antizyme”. Besides, the “In vivo (cellular) antizyme induction” value in assay [2] was “induced antizyme”.

On to `N=C(N)NOCC[C@H](N)C(=O)O` [Analog 1284, L-canavanine], for which the “In vitro antizyme induction” value in assay [1] is listed as “no activity”.

Regarding `NCCCON` [Analog 1291, AOPA], the antizyme induction entry in assay [1] is reported as “no induction activity is observed”.

On to L-Val-spermine [Analog 1157], for which the “In vitro antizyme induction” value in assay [1] was “retained the ability to induce antizyme”.
